Experimental findings from patent US7638540B2, “Benzofuran compound and medicinal composition containing the same” (The New Industry Research Organization, priority 2003, dated 2009) are described below.

The subject of one data set is LTB4 receptor. The experiment in a line: TXB2 release from guinea pig eosinophils stimulated with LTB4 (LTB4 receptor antagonist activity). It is filed as cell-based. The conditions noted are these: 10^−3 M test compound (37.5 μl) added to 300 μl cell suspension, then 10^−7 M LTB4 (37.5 μl), 37° C. 15 min, positive control 100, negative control 0, N.D. = TXB2 concentration at measurement limit or less. The protocol:
The LTB4 receptor antagonist activity of the test compound was examined using, as an index, thromboxane B2 (TXB2) released when stimulating eosinophil of guinea pig with LTB4.
Based on the method described in Japanese Journal of Pharmacology, vol. 70, p. 337-345 (1996) etc., eosinophils of guinea pig were prepared. A cell suspension (300 μl, 1.25×10^6 cells/ml) was placed in a 5 ml polypropylene test tube and, after incubation at 37° C. for 5 min., 10^−3 M test compound (37.5 μl) dissolved in 0.1% DMSO aqueous solution was added and the cells were continuously cultured for 5 min. Then, 10^−7 M LTB4 (37.5 μl) was added to induce the reaction and the cells were incubated at 37° C. for 15 min. The reaction was quenched in ice water, and the culture was centrifuged at 4° C., 3000 rpm for 10 min. The obtained supernatant was prepared as a sample for TXB2 measurement, and preserved at −80° C. before use for the measurement. The quantitation of TXB2 was performed using a TXB2 enzyme immunoassay kit (manufactured by Cayman Chemical Company). The release ratio (%) of TXB2 from the eosinophils was determined by the following formula: release ratio (%) of TXB2=[(average value of test compound administration group−average value of negative control group)/(average value of positive control group−average value of negative control group)]×100
As used herein, the positive control group means a group to which stimulation with LTB4 was applied but the same volume of a medium was given instead of the test compound, and the negative control group means a group to which stimulation with LTB4 was not applied, the same volume of a medium was given instead of LTB4, and the same volume of a medium was given instead of the test compound. When the release ratio of TXB2 is smaller than 0, it means that the measured TXB2 concentration was lower than that of the negative control group. When the TXB2 concentration in the sample was the measurement limit or less, N.D. is indicated.

Broadly, the melting point is the temperature, or range, at which the solid turns liquid. With `COc1cccc(NC(=O)/C=C/C=C(\Cl)c2cc3cccc(OC)c3o2)c1` [Example 57, (2E,4Z)-5-chloro-5-(7-methoxybenzofuran-2-yl)penta-2,4-dienoic acid (3-methoxyphenyl)amide], the melting point was 194.3 to 197.3 °C. The “Amount of TXB2 release (%)” value in the data set with LTB4 receptor amounted to 78.01%.
In the case of `CC(=O)c1oc2ccc(/C(C)=C/C(=O)N3CCN(c4ccccc4)CC3)cc2c1NC(=O)c1cnoc1C` [Example 75, (E)-N-{2-acetyl-5-[1-methyl-3-oxo-3-(4-phenylpiperazin-1-yl)-1-propenyl]benzofuran-3-yl}-5-methylisoxazole-4-carboxamide], the melting point lay in the range of 201.5 to 204.4 °C. In the data set on LTB4 receptor, the “Amount of TXB2 release (%)” value worked out at 27.03%.
Compound `COc1cccc(NC(=O)/C=C(/C)c2cc3c(S(=O)(=O)NCCc4ccc(OC)c(OC)c4)ccc(OCCCCl)c3o2)c1` [Example 52, (Z)-3-{7-(3-chloropropoxy)-4-[2-(3,4-dimethoxyphenyl)ethylsulfamoyl]benzofuran-2-yl}-N-(3-methoxyphenyl)-2-butenamide] displayed a melting point of 146.1 to 150 °C. For the same compound, in the data set on LTB4 receptor, the “Amount of TXB2 release (%)” value came out at 60.6%.
Regarding `CCOC(=O)CCCOc1cccc2cc(/C(C)=C/C(=O)Nc3ccc(OC)cc3)oc12` [Example 28, Ethyl (E)-4-{2-[2-(4-methoxyphenylcarbamoyl)-1-methylvinyl]benzofuran-7-yloxy}butyrate], the melting point was 141.3 to 141.5 °C. In addition, the “Amount of TXB2 release (%)” value with LTB4 receptor was −0.23%.
On to `CCOC(=O)c1oc2ccc(Br)cc2c1NC(=O)/C(C#N)=C(/C)O` [Example 97, Ethyl (Z)-5-bromo-3-(2-cyano-3-hydroxy-2-butenoylamino)benzofurane-2-carboxylate], for which the melting point lay within 186.3 to 187.2 °C. In the data set on LTB4 receptor, the “Amount of TXB2 release (%)” value is recorded as −0.12%.
`CC(=O)c1cc2c(/C(C)=C/C(=O)N3CCOCC3)ccc(OC(c3ccccc3)c3ccccc3)c2o1` [Example 7, (E)-3-(2-acetyl-7-benzhydryloxybenzofuran-4-yl)-1-morpholino-2-buten-1-one] displayed a melting point of 167 to 169.3 °C. In addition, the “Amount of TXB2 release (%)” value with LTB4 receptor worked out at 9.89%.
For `COc1ccc(CCNC(=O)/C=C/C=C(\Cl)c2cc3cccc(OC)c3o2)cc1OC` [Example 56, (2E,4Z)-5-chloro-5-(7-methoxybenzofuran-2-yl)-penta-2,4-dienoic acid [2-(3,4-dimethoxyphenyl)ethyl]amide], the melting point lay within 151.4 to 153.3 °C. In the data set on LTB4 receptor, the “Amount of TXB2 release (%)” value came out at 52.39%.
For `CCOC(=O)c1ccc(OC)c(NC(=O)/C=C(\C)c2ccc3oc(C(C)=O)c(N)c3c2)c1` [Example 16, Ethyl (E)-3-[3-(2-acetyl-3-aminobenzofuran-5-yl)-2-butenoylamino]-4-methoxybenzoate], the melting point fell in the range of 189 to 193 °C. For the same compound, the “Amount of TXB2 release (%)” value in the data set with LTB4 receptor was 56.57%.
Compound `COc1ccc(CCNC(=O)/C=C(\C)c2ccc3oc(C(C)=O)c(N)c3c2)cc1OC` [Example 17, (E)-3-(2-acetyl-3-aminobenzofuran-5-yl)-N-[2-(3,4-dimethoxyphenyl)ethyl]-2-butenamide] came in with a melting point of 168 to 173 °C. Moreover, the “Amount of TXB2 release (%)” value in the data set with LTB4 receptor worked out at 27.92%.
Compound `CCN(CC)C(=O)/C=C(\C)c1ccc2oc(C(C)=O)c(NC(=O)Cc3ccc(OC)cc3)c2c1` [Example 21, (E)-3-{2-acetyl-3-[2-(4-methoxyphenyl)acetylamino]-benzofuran-5-yl}-N,N-diethyl-2-butenamide] yielded a melting point of 121.8 to 122.3 °C. Besides, the “Amount of TXB2 release (%)” value in the data set with LTB4 receptor is recorded as 56.57%.
`CC(=O)c1cc2c(/C(C)=C/C(=O)N3CCN(Cc4ccccc4)CC3)ccc(OC(C)c3ccccc3)c2o1` (stereo not shown) [Example 10, (E)-3-[2-acetyl-7-(1-phenylethoxy)benzofuran-4-yl]-1-(4-benzylpiperazin-1-yl)-2-buten-1-one] returned a melting point of 196 to 202.1 °C. The “Amount of TXB2 release (%)” value with LTB4 receptor is listed as 23.43%.
